Laboratory results from patent publication US5364861A, “Optical isomers of 7-[3-(1,1-dialkylmethyl-1-amino-1-pyrrolidinyl]-quinolones and naphthyridones as antibacterial agents” (Warner-Lambert Company, priority 1993, dated 1994).
Converted amounts (≈) assume the structure as drawn. Counter-ions that a name gives are not always drawn. Like-named read-outs stand apart in the source and are kept apart here.

Experiments:
Ent. cloacae MA2646 = experiment: in vitro antibacterial activity, microtitration dilution (MIC), Ent. cloacae MA2646; type: cell-based; settings: Enterobacter cloacae, read-out: minimum inhibiting concentration (MIC)
Text: (§1) The in vitro antibacterial activity is obtained when tested by the microtitration dilution method as described in Heifetz, et al., Antimicr. Agents & Chemother. 1974;6:124, which is incorporated herein by reference.
(§2) By use of the above methods, the following minimum inhibiting concentration values (MICs in μg/ml), PD50 's in mg/kg, no effect phototoxicity dose in mg/kg and the cytotoxicity IC50 in μg/mL were obtained for representative enantiomers of the invention and compounds of the prior art as shown in the table.

Klebs. pneumoniae MGH-2 = experiment: in vitro antibacterial activity, microtitration dilution (MIC), Klebs. pneumoniae MGH-2; type: cell-based; settings: Klebsiella pneumoniae, MGH2, read-out: minimum inhibiting concentration (MIC)
Text: as §1, §2

Strep. pyogenes C-203 [1] = experiment: median protective dose in mice given lethal systemic infection, Strep. pyogenes; type: in vivo; settings: Streptococcus pyogenes, C203, Strep. pyogenes, single dose at time of challenge, route not given, read-out: median protective dose (PD50)
Protocol: (§3) The in vivo activity is obtained when the compounds are tested according to the procedure of Miller, et al (Proc. Soc. Exp. Biol. Med. 1944;57:261). The median protective dose (PD50) was determined in mice given lethal systemic infections. Single doses of compound were given at time of challenge.
as §2
(§4) The in vivo data as PD50 's are reported below the line of MICs for the same compound.

Strep. pyogenes C-203 [2] = experiment: in vitro antibacterial activity, microtitration dilution (MIC), Strep. pyogenes C-203; type: cell-based; settings: Streptococcus pyogenes, C203, read-out: minimum inhibiting concentration (MIC)
Text: as §1, §2

Prot. rettgeri M 1771 = experiment: in vitro antibacterial activity, microtitration dilution (MIC), Prot. rettgeri M 1771; type: cell-based; settings: Providencia rettgeri, M1771, read-out: minimum inhibiting concentration (MIC)
Text: as §1, §2

Pseud. aeruginosa UI-18 [3] = experiment: in vitro antibacterial activity, microtitration dilution (MIC), Pseud. aeruginosa UI-18; type: cell-based; settings: Pseudomonas aeruginosa, UI18, read-out: minimum inhibiting concentration (MIC)
Text: as §1, §2

Strep. faecalis MGH-2 = experiment: in vitro antibacterial activity, microtitration dilution (MIC), Strep. faecalis MGH-2; type: cell-based; settings: Enterococcus faecalis, MGH2, read-out: minimum inhibiting concentration (MIC)
Text: as §1, §2

Staph. aureus UC-76 = experiment: in vitro antibacterial activity, microtitration dilution (MIC), Staph. aureus UC-76; type: cell-based; settings: Staphylococcus aureus, UC76, read-out: minimum inhibiting concentration (MIC)
Text: as §1, §2

Staph. aureus H 228 = experiment: in vitro antibacterial activity, microtitration dilution (MIC), Staph. aureus H 228; type: cell-based; settings: Staphylococcus aureus, H228, read-out: minimum inhibiting concentration (MIC)
Text: as §1, §2

Strep. pneumoniae SV-1 = experiment: in vitro antibacterial activity, microtitration dilution (MIC), Strep. pneumoniae SV-1; type: cell-based; settings: Streptococcus pneumoniae, SV1, read-out: minimum inhibiting concentration (MIC)
Text: as §1, §2

Esch. coli Vogel [4] = experiment: median protective dose in mice given lethal systemic infection, Esch. coli; type: in vivo; settings: Escherichia coli, single dose at time of challenge, route not given, read-out: median protective dose (PD50)
Protocol: as §3, §2, §4

Esch. coli Vogel [5] = experiment: in vitro antibacterial activity, microtitration dilution (MIC), Esch. coli Vogel; type: cell-based; settings: Escherichia coli, read-out: minimum inhibiting concentration (MIC)
Text: as §1, §2

[6] = cytotoxicity, colony reduction of hamster V-79 cells; type: cell-based; settings: 3 hours treatment, colonies counted after 5 days, read-out: cytotoxicity IC50 (Cytotox)
Protocol: The cytotoxicity data is obtained using hamster V-79 cells. The cells were suspended in tissue culture medium and grown overnight. Cells were treated with drug for 3 hours, washed free of drug and then replated, and the colonies counted after 5 days. The concentration of drug that reduced colonies by 50% relative to control was recorded.
as §2

Pseud. aeruginosa UI-18 [7] = experiment: median protective dose in mice given lethal systemic infection, Pseud. aeruginosa; type: in vivo; settings: Pseudomonas aeruginosa, UI18, Pseud. aeruginosa, single dose at time of challenge, route not given, read-out: median protective dose (PD50)
Protocol: as §3, §2, §4

in vivo = experiment: in vivo; parameters: species or system mice; settings: mouse, po
Protocol: The phototoxicity data is obtained using depilated mice. Compound was administered orally each day for four successive days, followed each day by 3 hours of […] radiation. The mice were examined for any positive signs (redness, erythema) relative to control animals. The no effect dose and the 50% effect dose were determined. By use of the above methods, the following minimum inhibiting concentration values (MICs in μg/ml), PD50 's in mg/kg, no effect phototoxicity dose in mg/kg and the cytotoxicity IC50 in μg/mL were obtained for representative enantiomers of the invention and compounds of the prior art as shown in the table.

Compound | MIC (Ent. cloacae MA2646) | MIC (Klebs. pneumoniae MGH-2) | ED50 (Strep. pyogenes C-203 [1]; first line below the MICs) | ED50 (Strep. pyogenes C-203 [1]; second line below the MICs) | MIC (Strep. pyogenes C-203 [2]) | MIC (Prot. rettgeri M 1771) | MIC (Pseud. aeruginosa UI-18 [3]) | MIC (Strep. faecalis MGH-2) | MIC (Staph. aureus UC-76) | MIC (Staph. aureus H 228) | MIC (Strep. pneumoniae SV-1) | ED50 (Esch. coli Vogel [4]; first line below the MICs) | ED50 (Esch. coli Vogel [4]; second line below the MICs) | MIC (Esch. coli Vogel [5]) | CC50 at 3 h [6] | ED50 (Pseud. aeruginosa UI-18 [7]; first line below the MICs) | ED50 (Pseud. aeruginosa UI-18 [7]; second line below the MICs) | NOAEL (in vivo)
CC(C)(N)[C@H]1CCN(c2c(F)cc3c(=O)c(C(=O)O)cn(C4CC4)c3c2Cl)C1 [Example 1, (S)-7-[3-(1-Amino-1-methylethyl)-1-pyrrolidinyl]-8-chloro-1-cyclopropyl-6-fluoro-1,4-dihydro-4-oxo-3-quinolinecarboxylic acid, monohydrochloride] | 0.1 µg/mL | 0.2 µg/mL | 13 mg/kg | 4 mg/kg | 0.025 µg/mL | 0.4 µg/mL | 1.6 µg/mL | 0.05 µg/mL | 0.013 µg/mL | 0.025 µg/mL | 0.013 µg/mL | 27 mg/kg | 4 mg/kg | 0.1 µg/mL |  |  |  | 
CC(C)(N)[C@@H]1CCN(c2c(F)cc3c(=O)c(C(=O)O)cn(C4CC4)c3c2Cl)C1 [Example 2, (R)-7-[3-(1-Amino-1-methylethyl-1-pyrrolidinyl]-8-chloro-1-cyclopropyl-6-fluoro-1,4-dihydro-4-oxo-3-quinolinecarboxylic acid, monohydrochloride] | 0.05 µg/mL | 0.1 µg/mL | 2 mg/kg | 0.14 mg/kg | ≤ 0.003 µg/mL | 0.2 µg/mL | 0.8 µg/mL | 0.013 µg/mL | ≤ 0.003 µg/mL | 0.006 µg/mL | ≤ 0.003 µg/mL | 8 mg/kg | 1 mg/kg | 0.05 µg/mL | 8 µg/mL | 100 mg/kg | 17 mg/kg | 
CC(C)(N)[C@H]1CCN(c2nc3c(cc2F)c(=O)c(C(=O)O)cn3C2CC2)C1.Cl [Example 3, (S)-7-[3-(1-Amino-1-methylethyl)-1-pyrrolidinyl]-1-cyclopropyl-6-fluoro-1,4-dihydro-4-oxo-1,8-naphthyridine-3-carboxylic acid, monohydrochloride] | 0.2 µg/mL | 0.4 µg/mL | 32 mg/kg | 7 mg/kg | 0.1 µg/mL | 0.8 µg/mL | 3.1 µg/mL | 0.1 µg/mL | 0.025 µg/mL | 0.1 µg/mL | 0.05 µg/mL | 10 mg/kg | 3 mg/kg | 0.2 µg/mL | 58 µg/mL |  |  | 30 mg/kg
CNC(C)(C)[C@@H]1CCN(c2c(F)cc3c(=O)c(C(=O)O)cn(C4CC4)c3c2Cl)C1 [Example 6, (R)-08-Chloro-1-cyclopropyl-6-fluoro-1,4-dihydro-7-{3-[1-methyl-1-(methylamino)ethyl]-1-pyrrolidinyl}-4-oxo-3-quinolinecarboxylic acid, monohydrochloride] | 0.2 µg/mL | 0.4 µg/mL | 3 mg/kg | 0.5 mg/kg | ≤ 0.003 µg/mL | 0.4 µg/mL | 3.1 µg/mL | 0.025 µg/mL | ≤ 0.003 µg/mL | 0.013 µg/mL | ≤ 0.003 µg/mL | 11 mg/kg | 2 mg/kg | 0.2 µg/mL |  |  |  | 
COc1c(N2CC[C@@H](C(C)(C)N)C2)c(F)cc2c(=O)c(C(=O)O)cn(C3CC3)c12 [Example 7, (R)-7-[3-(1-Amino-1-methylethyl)-1-pyrrolidinyl]-1-cyclopropyl-6-fluoro-1,4-dihydro-8-methoxy-4-oxo-3-quinolinecarboxylic acid] | 0.1 µg/mL (≈ 0.248 µM) | 0.2 µg/mL (≈ 0.496 µM) | 3 mg/kg | 0.8 mg/kg | < 0.003 µg/mL | 0.4 µg/mL (≈ 0.991 µM) | 1.6 µg/mL (≈ 3.97 µM) | 0.013 µg/mL (≈ 0.0322 µM) | ≤ 0.003 µg/mL | 0.013 µg/mL (≈ 0.0322 µM) | ≤ 0.003 µg/mL | 26 mg/kg | 3 mg/kg | 0.1 µg/mL (≈ 0.248 µM) | 18 µg/mL (≈ 44.6 µM) |  |  | 
COc1c(N2CC[C@H](C(C)(C)N)C2)c(F)cc2c(=O)c(C(=O)O)cn(C3CC3)c12 [Example 8, (S)-7-[3-(1-Amino-1-methylethyl)-1-pyrrolidinyl]-1-cyclopropyl-6-fluoro-1,4-dihydro-8-methoxy-4-oxo-3-quinolinecarboxylic acid] | 0.2 µg/mL (≈ 0.496 µM) | 0.4 µg/mL (≈ 0.991 µM) |  |  | 0.025 µg/mL (≈ 0.062 µM) | 0.8 µg/mL (≈ 1.98 µM) | 3.1 µg/mL (≈ 7.68 µM) | 0.05 µg/mL (≈ 0.124 µM) | 0.013 µg/mL (≈ 0.0322 µM) | 0.05 µg/mL (≈ 0.124 µM) | 0.025 µg/mL (≈ 0.062 µM) |  |  | 0.2 µg/mL (≈ 0.496 µM) |  |  |  | 
CC(C)(N)[C@@H]1CCN(c2cc3c(c(N)c2F)c(=O)c(C(=O)O)cn3C2CC2)C1 [Example 9, (R)-7-[3-(1-Amino-1-methylethyl)-1-pyrrolidinyl]-5-amino-1-cyclopropyl-6-fluoro-1,4-dihydro-4-oxo-3-quinolinecarboxylic acid] | 0.4 µg/mL (≈ 1.03 µM) | 0.8 µg/mL (≈ 2.06 µM) | 11 mg/kg | 2 mg/kg | 0.006 µg/mL (≈ 0.0154 µM) | 0.8 µg/mL (≈ 2.06 µM) | 3.1 µg/mL (≈ 7.98 µM) | 0.05 µg/mL (≈ 0.129 µM) | 0.006 µg/mL (≈ 0.0154 µM) | 0.025 µg/mL (≈ 0.0644 µM) | 0.006 µg/mL (≈ 0.0154 µM) |  |  | 0.4 µg/mL (≈ 1.03 µM) | 13 µg/mL (≈ 33.5 µM) |  |  | 
Cc1c(F)c(N2CC[C@@H](C(C)(C)N)C2)cc2c1c(=O)c(C(=O)O)cn2-c1ccc(F)cc1F [Example 10, (R)-7-[3-(1-Amino-1-methylethyl)-1-pyrrolidinyl]-1-(2,4-difluorophenyl)-6-fluoro-1,4-dihydro-5-methyl-4-oxo-3-quinolinecarboxylic acid] | 0.4 µg/mL (≈ 0.871 µM) | 0.8 µg/mL (≈ 1.74 µM) |  |  | 0.2 µg/mL (≈ 0.435 µM) | 1.6 µg/mL (≈ 3.48 µM) | 3.1 µg/mL (≈ 6.75 µM) | 0.4 µg/mL (≈ 0.871 µM) | 0.05 µg/mL (≈ 0.109 µM) | 0.1 µg/mL (≈ 0.218 µM) | 0.4 µg/mL (≈ 0.871 µM) |  |  | 0.4 µg/mL (≈ 0.871 µM) |  |  |  | 
Cc1c(F)c(N2CC[C@H](C(C)(C)N)C2)cc2c1c(=O)c(C(=O)O)cn2-c1ccc(F)cc1F [Example 11, S-7-[3-(1-amino-1-methylethyl)-1-pyrrolidinyl]-1-(2,4-difluorophenyl)-6-fluoro-1,4-dihydro-5-methyl-4-oxo-3-quinolinecarboxylic acid] | 0.1 µg/mL (≈ 0.218 µM) | 0.2 µg/mL (≈ 0.435 µM) |  |  | 0.013 µg/mL (≈ 0.0283 µM) | 0.4 µg/mL (≈ 0.871 µM) | 1.6 µg/mL (≈ 3.48 µM) | 0.1 µg/mL (≈ 0.218 µM) | 0.013 µg/mL (≈ 0.0283 µM) | 0.025 µg/mL (≈ 0.0544 µM) | 0.013 µg/mL (≈ 0.0283 µM) |  |  | 0.1 µg/mL (≈ 0.218 µM) |  |  |  | 
CC(C)(N)[C@H]1CCN(c2c(F)cc3c(=O)c(C(=O)O)cn(C4CC4)c3c2F)C1 [Example 12, (S)-7-[3-(1-Amino-1-methylethyl)-1-pyrrolidinyl]-1-cyclopropyl-6,8-difluoro-1,4-dihydro-4-oxo-3-quinolinecarboxylic acid] | 0.2 µg/mL (≈ 0.511 µM) | 0.2 µg/mL (≈ 0.511 µM) | 12 mg/kg | 0.6 mg/kg | 0.006 µg/mL (≈ 0.0153 µM) | 0.4 µg/mL (≈ 1.02 µM) | 1.6 µg/mL (≈ 4.09 µM) | 0.025 µg/mL (≈ 0.0639 µM) | ≤ 0.003 µg/mL | 0.025 µg/mL (≈ 0.0639 µM) | 0.006 µg/mL (≈ 0.0153 µM) |  |  | 0.1 µg/mL (≈ 0.255 µM) |  |  |  | 
CC(C)(N)C1CCN(c2nc3c(cc2F)c(=O)c(C(=O)O)cn3C2CC2)C1 (centres unmarked) [reference compound] | 0.1 µg/mL (≈ 0.267 µM) | 0.2 µg/mL (≈ 0.534 µM) |  |  | 0.025 µg/mL (≈ 0.0668 µM) | 0.4 µg/mL (≈ 1.07 µM) | 1.6 µg/mL (≈ 4.27 µM) | 0.05 µg/mL (≈ 0.134 µM) | 0.013 µg/mL (≈ 0.0347 µM) | 0.05 µg/mL (≈ 0.134 µM) | 0.025 µg/mL (≈ 0.0668 µM) |  |  | 0.1 µg/mL (≈ 0.267 µM) | 66 µg/mL (≈ 176 µM) |  |  | 30 mg/kg
